From ChEMBL document CHEMBL4387772, “Design, synthesis and biological evaluation of hypolipidemic compounds based on BRD4 inhibitor RVX-208” (Bioorg Med Chem Lett, 2019)

Legend:
HepG2 = experiment: Up regulation of ApoA1 mRNA expression in human HepG2 cells at 100 uM by RT-PCR analysis relative to control; type: functional
Rattus norvegicus [1] = experiment: Antihyperlipidemic activity in po dosed Sprague-Dawley rat assessed as increase in HDL-C level administered twice daily for 1 week measured 2 hrs post-last dose by HPLC analysis relative to control; type: functional
Rattus norvegicus [2] = experiment: Antihyperlipidemic activity in po dosed Sprague-Dawley rat assessed as decrease in triglyceride level administered twice daily for 1 week measured 2 hrs post-last dose by GPO-PAP analysis relative to control; type: functional; design: scale not given: the % may be the effect or the level left
[3] = biological target: Bromodomain-containing protein 4 (Homo sapiens, UniProt O60885); experiment: Inhibition of BRD4 bromodomain 2 (unknown origin) incubated for 30 mins by ELISA
Rattus norvegicus [4] = experiment: Antihyperlipidemic activity in Sprague-Dawley rat assessed as increase in HDL-C level at 30 mg/kg, po administered twice daily for 1 week measured 2 hrs post-last dose by HPLC analysis relative to control; type: functional
Rattus norvegicus [5] = experiment: Antihyperlipidemic activity in Sprague-Dawley rat assessed as decrease in triglyceride level at 30 mg/kg, po administered twice daily for 1 week measured 2 hrs post-last dose by GPO-PAP analysis relative to control; type: functional; design: scale not given: the % may be the effect or the level left

SMILES	IC50 [3] [nM]	Activity (HepG2) [%]	Activity (Rattus norvegicus [1]) [%]	Activity (Rattus norvegicus [2]) [%]	Activity (Rattus norvegicus [4]) [%]	Activity (Rattus norvegicus [5]) [%]
COc1cc(OC)c2c(=O)[nH]c(-c3cc(C)c(OCCO)c(C)c3)nc2c1 [APABETALONE]	–	38.91	23.84	3.13	–	–
CCOC(=O)C(C)(C)Oc1ccc(Cl)cc1 [CLOFIBRATE]	–	–	5.92	41.35	–	–
COc1cc(OC)c2c(=O)[nH]c(-c3cc(OC)c(OCCO)c(OC)c3)nc2c1	27.5	32.77	–	–	20.61	5.07
COc1cc(OC)c2c(=O)[nH]c(-c3cc(C)c(OC(=O)C(C)(C)Br)c(C)c3)nc2c1	53.8	34.85	–	–	19.33	36.21
COc1cc(OC)c2c(=O)[nH]c(-c3ccc(C(=O)OCCO)cc3)nc2c1	71	25.3	–	–	16.51	11.94
Cc1ccc(C)c(OCCCC(C)(C)C(=O)O)c1 [GEMFIBROZIL]	–	–	7.03	39.66	–	–
COc1cc(OC)c2c(=O)[nH]c(-c3cc(C)c(OC(=O)CC(=O)OC(C)(C)C(=O)O)c(C)c3)nc2c1	> 100	21.67	–	–	16.46	48.59

The next lines start with results.

IC50 [3] [nM]	SMILES	Activity (HepG2) [%]	Activity (Rattus norvegicus [1]) [%]	Activity (Rattus norvegicus [2]) [%]	Activity (Rattus norvegicus [4]) [%]	Activity (Rattus norvegicus [5]) [%]
9.7	COc1cc(OC)c2c(=O)[nH]c(-c3cc(OC)c(OC(=O)C(C)(C)Oc4ccc(Cl)cc4)c(OC)c3)nc2c1	42.65	–	–	29.39	37.34
39.6	COc1cc(OC)c2c(=O)[nH]c(-c3cc(C)c(OC(=O)C(C)(C)Oc4ccc(Cl)cc4)c(C)c3)nc2c1	38.09	–	–	22.5	34.85
> 100	COc1cc(OC)c2c(=O)[nH]c(-c3cc(OC)c(OC(=O)CC(=O)OC(C)(C)C(=O)O)c(OC)c3)nc2c1	37.34	–	–	21.58	50.36
20.9	COc1cc(OC)c2c(=O)[nH]c(-c3cc(OC)c(OC(=O)C(C)(C)Br)c(OC)c3)nc2c1	44.82	–	–	32.74	41.63
